Test results from US20210322785A1, “COMPOSITIONS AND METHODS FOR TREATING WOUNDS” (C.P. MEDICAL CORPORATION, priority 2018, published 2021).

Key:
[1] = Drug elution from polymer into PBS at 37° C.; format: physicochemical; conditions: within the first three days; polymer prepared with Nolvasan, 2% chlorhexidine dose (50 mg); PBS 37° C.
Method: A Thermo Scientific GENESYS 10S UV-Vis spectrophotometer was used to quantify the release of various drugs from several polymers. First, the reference drug or drug solution was dissolved in an appropriate solvent. Typically, phosphate buffered saline (PBS), ethanol or dimethylsulfoxide (DMSO) were used as the solvent. Next, the optimal absorption peak for identifying and quantifying the drug was determined by performing a scan of the drug solution between 200 and 1000 nm. With the absorption peak selected, a reference curve was established by measuring the peak absorbance for various concentrations of the drug. […]
Elution samples were collected daily by decanting the PBS solution from the polymer. The volume of sample collected was recorded. […] The elution sample was analyzed by first diluting the sample in the appropriate solvent using analytical pipettes such that the measured absorbance was in the range determined by the reference curve. The dilution factor was recorded. The drug concentration was calculated from the measured absorbance via the reference curve and the dilution factor. The drug amount was calculated by multiplying the drug concentration with the sample volume. The percent elution for that day was calculated by dividing the drug amount by the total amount of drug administered. […]

[2] = Hydrogel surface spread test; format: physicochemical; parameters: key: 1: no spreading, tight drops that stay in place; 2: mild spreading, drops drip slowly down; 3: severe spreading, drops completely wet surface; conditions: drop from 22 gauge needle on 97.5% water hydrogel surface, incline about 30°
Method: To model the performance of the polymer solutions on a hydrophilic surface the extent of spreading and dripping of droplets on a high water content biocompatible hydrogel polymer matrix surface at an incline of about 30° was recorded. […] The solution was stirred with a spatula for 10 to 20 seconds and allowed to gel, which typically took 5 to 10 minutes. The water content of the resulting polymer was 97.5%.
The test was performed by first preparing the polymer solution in the usual fashion. After thorough mixing, the polymer solution was dispensed dropwise through a 22 gauge needle onto the biocompatible biocompatible hydrogel polymer matrix surface. The results are shown in Table 9B and were divided into three general categories: 1) no spreading, tight drops that stay in place; 2) mild spreading, drops drip slowly down; 3) severe spreading, drops completely wet surface. Water is in category 3.

Compound	chlorhexidine released from polymer [1]	hydrogel surface spread test category [2]
[H]/N=C(\N/C(=N/[H])NCCCCCCNC(=N)NC(=N)Nc1ccc(Cl)cc1)Nc1ccc(Cl)cc1 [chlorhexidine]	Almost half	
Water		3
